Measured values reported in patent US20250296938A1, “Compounds that Interact with the Ras Superfamily for the Treatment of Cancers, Inflammatory Diseases, Rasopathies, and Fibrotic Disease” (SHY Therapeutics, LLC, priority 2018, published 2025).
Like-named read-outs stand apart in the source and are kept apart here.

How the values were obtained:
Test in all cases: Ras GTP binding domain inhibition assay (Cy3-GTP/Cy5-GTP competition)
KRas G12C mutant = system: KRas G12C mutant; parameters: species or system human; settings: 20 μM; for KRas G12C mutant + SOS: % inh.: with SOS; for KRas G12C mutant: % inh.: without SOS
How it was run: (§1)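 His-tagged Ras immobilized on nickel-coated wells in Tris buffer (pH 7.4 or 7.0) with 1 mM MgCl2, 1 mM DTT, 1% DMSO. Compound (20 μM, or serial dilution for IC50) incubated 3 hours at room temperature, ± Sos (residues 556-1049) in final hour. Bound 100 nM Cy3-/Cy5-GTP read after 45 minutes and washing.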

KRas Q61H mutant = system: KRas Q61H mutant; parameters: species or system human; settings: 20 μM; for KRas Q61H mutant + SOS: % inh.: with SOS; for KRas Q61H mutant: % inh.: without SOS
How it was run: as §1

KRas wild type = system: KRas wild type; parameters: species or system human; settings: 20 μM; for KRas wild type + SOS: % inh.: with SOS; for KRas wild type: % inh.: without SOS
How it was run: as §1

KRas G12D mutant = molecular target: T1, KRas G12D mutant (Homo sapiens, UniProt P01116, G12D); settings: 20 μM
T1 construct: fused on or other part: His tag, used for capture on nickel-coated plates
How it was run: as §1

[1] = with SOS, read-out: KRas G-12D mutant + SOS: % inh.
[2] = without SOS, read-out: KRas G12D mutant: % inh.

Row | Structure (SMILES) | KRas G12C mutant + SOS: % inh. (KRas G12C mutant) | KRas G12C mutant: % inh. (KRas G12C mutant) | KRas Q61H mutant + SOS: % inh. (KRas Q61H mutant) | KRas Q61H mutant: % inh. (KRas Q61H mutant) | KRas wild type + SOS: % inh. (KRas wild type) | KRas wild type: % inh. (KRas wild type) | inhibition at 20 µM (KRas G12D mutant; [1]) | inhibition at 20 µM (KRas G12D mutant; [2])
1 | COCCn1ccnc1-c1nc(O)c2scc(-c3ccccn3)c2n1 [drawing 852] | D (76-100% inhibition) | C (51-75% inhibition) | C (51-75% inhibition) | C (51-75% inhibition) | C (51-75% inhibition) | D (76-100% inhibition) | 51 to 75% | 76 to 100%
2 | Cn1ccnc1-c1nc(O)c2scc(-c3ccccn3)c2n1 [drawing 853] | C (51-75% inhibition) | D (76-100% inhibition) | C (51-75% inhibition) | D (76-100% inhibition) | C (51-75% inhibition) | D (76-100% inhibition) | 51 to 75% | 76 to 100%
3 | COCC(C)Nc1nc(-c2nccn2C)nc2sc(-c3ccccc3Cl)c(-c3cscn3)c12 (stereo not shown) [drawing 854] | D (76-100% inhibition) | C (51-75% inhibition) | D (76-100% inhibition) | C (51-75% inhibition) | D (76-100% inhibition) | B (26-50% inhibition) | 51 to 75% | 51 to 75%
4 | COCC(C)Nc1nc(-c2nccn2C)nc2sc(-c3cccc(OC)c3)c(-c3cscn3)c12 (stereo not shown) [drawing 855] | D (76-100% inhibition) | B (26-50% inhibition) | D (76-100% inhibition) | C (51-75% inhibition) | D (76-100% inhibition) | B (26-50% inhibition) | 51 to 75% | 51 to 75%
5 | COC1CCN(c2nc(-c3nccn3C)nc3sc(-c4ccn(C)n4)c(-c4ccccc4)c23)CC1 [drawing 856] | C (51-75% inhibition) | B (26-50% inhibition) | C (51-75% inhibition) | B (26-50% inhibition) | B (26-50% inhibition) | 0 (0% inhibition) | 26 to 50% | 26 to 50%
6 | Cn1ccc(-c2sc3nc(-c4nccn4C)nc(N4CCC5(CCOC5)C4)c3c2-c2ccccc2)n1 (stereo not shown) [drawing 857] | B (26-50% inhibition) | A (1-25% inhibition) | B (26-50% inhibition) | B (26-50% inhibition) | A (1-25% inhibition) | A (1-25% inhibition) | 1 to 25% | 26 to 50%
7 | COCC1CCN(c2nc(-c3nccn3C)nc3sc(-c4ccn(C)n4)c(-c4ccccc4)c23)C1 (stereo not shown) [drawing 858] | C (51-75% inhibition) | B (26-50% inhibition) | D (76-100% inhibition) | C (51-75% inhibition) | C (51-75% inhibition) | 0 (0% inhibition) | 26 to 50% | 26 to 50%
8 | CO[C@@H]1CCC(Nc2nc(-c3nccn3C)nc3sc(-c4ccn(C)n4)c(-c4ccccc4)c23)C1 (stereo partly shown) [drawing 859] | C (51-75% inhibition) | A (1-25% inhibition) | C (51-75% inhibition) | B (26-50% inhibition) | C (51-75% inhibition) | A (1-25% inhibition) | 26 to 50% | 26 to 50%
